{"source": "ChEMBL document CHEMBL3596170", "about": "“Synthesis of 1H-1,2,3-triazole linked aryl(arylamidomethyl) - dihydrofurocoumarin hybrids and analysis of their cytotoxicity” (2015)", "data": [{"test_system": "not listed separately", "test": "Cytotoxicity against human CEM13 cells assessed as cell death after 72 hrs by MTT assay", "format": "functional", "units": {"CTD50": "µM"}, "values": [{"smiles": "CC(C)C1(N=[N+]=[N-])Oc2cc3oc(=O)ccc3cc2C1=O", "note": "(configuration not stated)", "CTD50": 49}, {"smiles": "CC(C)C1(N=[N+]=[N-])Oc2c(cc3ccc(=O)oc3c2CN2CCN(C)CC2)C1=O", "note": "(configuration not stated)", "CTD50": 58}, {"smiles": "CC(C)C1(n2cc(-c3ccccc3)nn2)Oc2cc3oc(=O)ccc3cc2C1=O", "note": "(configuration not stated)", "CTD50": 51}, {"smiles": "COc1ccc(-c2cn(C3(C(C)C)Oc4cc5oc(=O)ccc5cc4C3=O)nn2)c(OC)c1OC", "note": "(configuration not stated)", "CTD50": 32}, {"smiles": "COc1cc(-c2cn(C3(C(C)C)Oc4cc5oc(=O)ccc5cc4C3=O)nn2)ccc1OCc1ccccc1", "note": "(configuration not stated)", "CTD50": 25}, {"smiles": "CC(C)C1(n2cc(-c3ccc4c(c3)OCCO4)nn2)Oc2cc3oc(=O)ccc3cc2C1=O", "note": "(configuration not stated)", "CTD50": 15}, {"smiles": "CC(C)C1(n2cc(-c3cc([N+](=O)[O-])ccc3O)nn2)Oc2cc3oc(=O)ccc3cc2C1=O", "note": "(configuration not stated)", "CTD50": 21}, {"smiles": "CC(C)C1(n2cc(CNC(=O)c3cc(O)cc(O)c3)nn2)Oc2cc3oc(=O)ccc3cc2C1=O", "note": "(configuration not stated)", "CTD50": 16}, {"smiles": "COc1cc(C(=O)NCc2cn(C3(C(C)C)Oc4cc5oc(=O)ccc5cc4C3=O)nn2)ccc1O", "note": "(configuration not stated)", "CTD50": 9}, {"smiles": "COc1cc(OC)cc(C(=O)NCc2cn(C3(C(C)C)Oc4cc5oc(=O)ccc5cc4C3=O)nn2)c1", "note": "(configuration not stated)", "CTD50": 18}, {"smiles": "CC(C)C1(n2cc(CNC(=O)c3cc(O)c(O)c(O)c3)nn2)Oc2cc3oc(=O)ccc3cc2C1=O", "note": "(configuration not stated)", "CTD50": 11}, {"smiles": "CC(C)C1(n2cc(CNC(=O)c3ccc(N)cc3O)nn2)Oc2cc3oc(=O)ccc3cc2C1=O", "note": "(configuration not stated)", "CTD50": 17}, {"smiles": "COc1ccc(/C=C/C(=O)NCc2cn(C3(C(C)C)Oc4cc5oc(=O)ccc5cc4C3=O)nn2)c(OC)c1", "note": "(configuration not stated)", "CTD50": 30}, {"smiles": "CC(C)C1(n2cc(-c3ccccc3)nn2)Oc2c(cc3ccc(=O)oc3c2CN2CCN(C)CC2)C1=O", "note": "(configuration not stated)", "CTD50": 32}, {"smiles": "CC(C)C1(n2cc(-c3ccc4c(c3)OCCO4)nn2)Oc2c(cc3ccc(=O)oc3c2CN2CCN(C)CC2)C1=O", "note": "(configuration not stated)", "CTD50": 10}, {"smiles": "CC(C)C1(n2cc(-c3cc([N+](=O)[O-])ccc3O)nn2)Oc2c(cc3ccc(=O)oc3c2CN2CCN(C)CC2)C1=O", "note": "(configuration not stated)", "CTD50": 11}, {"smiles": "COc1ccc(/C=C/C(=O)NCc2cn(C3(C(C)C)Oc4c(cc5ccc(=O)oc5c4CN4CCN(C)CC4)C3=O)nn2)c(OC)c1", "note": "(configuration not stated)", "CTD50": 16}, {"smiles": "COc1cccc2c1C(=O)c1c(O)c3c(c(O)c1C2=O)C[C@@](O)(C(=O)CO)C[C@@H]3O[C@H]1C[C@H](N)[C@H](O)[C@H](C)O1", "note": "[DOXORUBICIN]", "CTD50": 7.4}, {"smiles": "COc1c(C(C)C)oc2cc3oc(=O)ccc3cc12", "note": "[PEUCEDANIN]", "CTD50": 81}]}, {"test_system": "MT4", "test": "Cytotoxicity against human MT4 cells assessed as cell death after 72 hrs by MTT assay", "format": "functional", "units": {"CTD50": "µM"}, "values": [{"smiles": "CC(C)C1(N=[N+]=[N-])Oc2cc3oc(=O)ccc3cc2C1=O", "note": "(configuration not stated)", "CTD50": 50}, {"smiles": "CC(C)C1(N=[N+]=[N-])Oc2c(cc3ccc(=O)oc3c2CN2CCN(C)CC2)C1=O", "note": "(configuration not stated)", "CTD50": 62}, {"smiles": "CC(C)C1(n2cc(-c3ccccc3)nn2)Oc2cc3oc(=O)ccc3cc2C1=O", "note": "(configuration not stated)", "CTD50": 70}, {"smiles": "COc1ccc(-c2cn(C3(C(C)C)Oc4cc5oc(=O)ccc5cc4C3=O)nn2)c(OC)c1OC", "note": "(configuration not stated)", "CTD50": 27}, {"smiles": "COc1cc(-c2cn(C3(C(C)C)Oc4cc5oc(=O)ccc5cc4C3=O)nn2)ccc1OCc1ccccc1", "note": "(configuration not stated)", "CTD50": 28}, {"smiles": "CC(C)C1(n2cc(-c3ccc4c(c3)OCCO4)nn2)Oc2cc3oc(=O)ccc3cc2C1=O", "note": "(configuration not stated)", "CTD50": 11}, {"smiles": "CC(C)C1(n2cc(-c3cc([N+](=O)[O-])ccc3O)nn2)Oc2cc3oc(=O)ccc3cc2C1=O", "note": "(configuration not stated)", "CTD50": 11}, {"smiles": "CC(C)C1(n2cc(CNC(=O)c3cc(O)cc(O)c3)nn2)Oc2cc3oc(=O)ccc3cc2C1=O", "note": "(configuration not stated)", "CTD50": 22}, {"smiles": "COc1cc(C(=O)NCc2cn(C3(C(C)C)Oc4cc5oc(=O)ccc5cc4C3=O)nn2)ccc1O", "note": "(configuration not stated)", "CTD50": 10}, {"smiles": "COc1cc(OC)cc(C(=O)NCc2cn(C3(C(C)C)Oc4cc5oc(=O)ccc5cc4C3=O)nn2)c1", "note": "(configuration not stated)", "CTD50": 19}, {"smiles": "CC(C)C1(n2cc(CNC(=O)c3cc(O)c(O)c(O)c3)nn2)Oc2cc3oc(=O)ccc3cc2C1=O", "note": "(configuration not stated)", "CTD50": 12}, {"smiles": "CC(C)C1(n2cc(CNC(=O)c3ccc(N)cc3O)nn2)Oc2cc3oc(=O)ccc3cc2C1=O", "note": "(configuration not stated)", "CTD50": 13}, {"smiles": "COc1ccc(/C=C/C(=O)NCc2cn(C3(C(C)C)Oc4cc5oc(=O)ccc5cc4C3=O)nn2)c(OC)c1", "note": "(configuration not stated)", "CTD50": 22}, {"smiles": "CC(C)C1(n2cc(-c3ccccc3)nn2)Oc2c(cc3ccc(=O)oc3c2CN2CCN(C)CC2)C1=O", "note": "(configuration not stated)", "CTD50": 33}, {"smiles": "CC(C)C1(n2cc(-c3ccc4c(c3)OCCO4)nn2)Oc2c(cc3ccc(=O)oc3c2CN2CCN(C)CC2)C1=O", "note": "(configuration not stated)", "CTD50": 13}, {"smiles": "CC(C)C1(n2cc(-c3cc([N+](=O)[O-])ccc3O)nn2)Oc2c(cc3ccc(=O)oc3c2CN2CCN(C)CC2)C1=O", "note": "(configuration not stated)", "CTD50": 11}, {"smiles": "COc1ccc(/C=C/C(=O)NCc2cn(C3(C(C)C)Oc4c(cc5ccc(=O)oc5c4CN4CCN(C)CC4)C3=O)nn2)c(OC)c1", "note": "(configuration not stated)", "CTD50": 13}, {"smiles": "COc1cccc2c1C(=O)c1c(O)c3c(c(O)c1C2=O)C[C@@](O)(C(=O)CO)C[C@@H]3O[C@H]1C[C@H](N)[C@H](O)[C@H](C)O1", "note": "[DOXORUBICIN]", "CTD50": 3.4}, {"smiles": "COc1c(C(C)C)oc2cc3oc(=O)ccc3cc12", "note": "[PEUCEDANIN]", "CTD50": 67}]}, {"test_system": "U-937", "test": "Cytotoxicity against human U937 cells assessed as cell death after 72 hrs by MTT assay", "format": "functional", "units": {"CTD50": "µM"}, "values": [{"smiles": "CC(C)C1(N=[N+]=[N-])Oc2cc3oc(=O)ccc3cc2C1=O", "note": "(configuration not stated)", "CTD50": 53}, {"smiles": "CC(C)C1(N=[N+]=[N-])Oc2c(cc3ccc(=O)oc3c2CN2CCN(C)CC2)C1=O", "note": "(configuration not stated)", "CTD50": 45}, {"smiles": "CC(C)C1(n2cc(-c3ccccc3)nn2)Oc2cc3oc(=O)ccc3cc2C1=O", "note": "(configuration not stated)", "CTD50": 31}, {"smiles": "COc1ccc(-c2cn(C3(C(C)C)Oc4cc5oc(=O)ccc5cc4C3=O)nn2)c(OC)c1OC", "note": "(configuration not stated)", "CTD50": 45}, {"smiles": "COc1cc(-c2cn(C3(C(C)C)Oc4cc5oc(=O)ccc5cc4C3=O)nn2)ccc1OCc1ccccc1", "note": "(configuration not stated)", "CTD50": 28}, {"smiles": "CC(C)C1(n2cc(-c3ccc4c(c3)OCCO4)nn2)Oc2cc3oc(=O)ccc3cc2C1=O", "note": "(configuration not stated)", "CTD50": 8}, {"smiles": "CC(C)C1(n2cc(-c3cc([N+](=O)[O-])ccc3O)nn2)Oc2cc3oc(=O)ccc3cc2C1=O", "note": "(configuration not stated)", "CTD50": 20}, {"smiles": "CC(C)C1(n2cc(CNC(=O)c3cc(O)cc(O)c3)nn2)Oc2cc3oc(=O)ccc3cc2C1=O", "note": "(configuration not stated)", "CTD50": 23}, {"smiles": "COc1cc(C(=O)NCc2cn(C3(C(C)C)Oc4cc5oc(=O)ccc5cc4C3=O)nn2)ccc1O", "note": "(configuration not stated)", "CTD50": 8}, {"smiles": "COc1cc(OC)cc(C(=O)NCc2cn(C3(C(C)C)Oc4cc5oc(=O)ccc5cc4C3=O)nn2)c1", "note": "(configuration not stated)", "CTD50": 45}, {"smiles": "CC(C)C1(n2cc(CNC(=O)c3cc(O)c(O)c(O)c3)nn2)Oc2cc3oc(=O)ccc3cc2C1=O", "note": "(configuration not stated)", "CTD50": 20}, {"smiles": "CC(C)C1(n2cc(CNC(=O)c3ccc(N)cc3O)nn2)Oc2cc3oc(=O)ccc3cc2C1=O", "note": "(configuration not stated)", "CTD50": 24}, {"smiles": "COc1ccc(/C=C/C(=O)NCc2cn(C3(C(C)C)Oc4cc5oc(=O)ccc5cc4C3=O)nn2)c(OC)c1", "note": "(configuration not stated)", "CTD50": 25}, {"smiles": "CC(C)C1(n2cc(-c3ccccc3)nn2)Oc2c(cc3ccc(=O)oc3c2CN2CCN(C)CC2)C1=O", "note": "(configuration not stated)", "CTD50": 25}, {"smiles": "CC(C)C1(n2cc(-c3ccc4c(c3)OCCO4)nn2)Oc2c(cc3ccc(=O)oc3c2CN2CCN(C)CC2)C1=O", "note": "(configuration not stated)", "CTD50": 10}, {"smiles": "CC(C)C1(n2cc(-c3cc([N+](=O)[O-])ccc3O)nn2)Oc2c(cc3ccc(=O)oc3c2CN2CCN(C)CC2)C1=O", "note": "(configuration not stated)", "CTD50": 17}, {"smiles": "COc1ccc(/C=C/C(=O)NCc2cn(C3(C(C)C)Oc4c(cc5ccc(=O)oc5c4CN4CCN(C)CC4)C3=O)nn2)c(OC)c1", "note": "(configuration not stated)", "CTD50": 16}, {"smiles": "COc1cccc2c1C(=O)c1c(O)c3c(c(O)c1C2=O)C[C@@](O)(C(=O)CO)C[C@@H]3O[C@H]1C[C@H](N)[C@H](O)[C@H](C)O1", "note": "[DOXORUBICIN]", "CTD50": 0.2}, {"smiles": "COc1c(C(C)C)oc2cc3oc(=O)ccc3cc12", "note": "[PEUCEDANIN]", "CTD50": 58}]}]}
